Activity calls are given as the source filed them. No cut-off for these calls is given here. Positions of bridges follow the written chain, without caps; N, C: chain ends. Non-standard residues stand in square brackets, D forms with d. Residues, ends and D or L forms follow the SMILES beside them. *: point of attachment. X3 = CC[C@H](C)CCCCC(=O)*; Dab = NCC[C@H](N)C(=O)O
Legend:
Staphylococcus aureus [1] = assay: Antimicrobial activity against Staphylococcus aureus CMCC 26003 at 5 times MIC measured at 180 mins; format: functional, organism-based
Trypsin = Trypsin (Homo sapiens, UniProt P07477+P07478+P35030); assay: Stability of compound assessed as trypsin (unknown origin) mediated drug degradation […] measured at 24 hrs by RP-HPLC analysis; format: ADME, protein assay; conditions: read-out: Activity
Staphylococcus aureus [2] = assay: Antipersister-activity against Staphylococcus aureus CMCC 26003 assessed as elimination of persister cells at 50 times MIC preincubated adherent persistent cells with colistin incubation for 24 hrs; format: functional
Staphylococcus aureus [3] = assay: Antibiofilm activity against Staphylococcus aureus CMCC 26003 assessed as biofilm eradication at 0.5 to 2 times MIC incubated for 24 hrs by crystal violet staining based analysis; format: functional
Peritoneal macrophage [4] = assay: Antiinflammatory activity in mouse Peritoneal macrophage cells assessed as inhibition of LPS-induced TNF-alpha production at 20 microg/ml incubated for 6 hrs by ELISA analysis; format: functional, cell-based; conditions: dose 20.0 µg/ml
[5] = Hemolytic activity at human Erythrocyte assessed as hemolysis at 100 microg/ml; format: toxicity, cell-based; conditions: erythrocytes, at 100 µg/mL, read-out: Activity
Peritoneal macrophage [6] = assay: Antiinflammatory activity in mouse Peritoneal macrophage cells assessed as inhibition of LPS-induced IL-6 production at 20 microg/ml incubated for 6 hrs by ELISA analysis; format: functional, cell-based; conditions: dose 20.0 µg/ml
Acinetobacter baumannii = assay: Antibiofilm activity against Acinetobacter baumannii ATCC 19606 assessed as inhibition of biofilm formation at 0.5 times MIC incubated for 48 hrs by crystal violet staining based analysis; format: functional
Staphylococcus aureus [7] = assay: Antimicrobial activity against Staphylococcus aureus CMCC 26003 measured at 8 hrs in presence of mouse serum; format: functional, organism-based
[8] = Acute toxicity in BALB/c mouse assessed as effect on BUN level at 10 mg/kg, iv measured for 24 hrs; format: organism-based; conditions: in vivo
Peritoneal macrophage [9] = assay: Cytotoxicity against mouse Peritoneal macrophage cells assessed as survival rate at 100 microg/ml; format: functional; conditions: read-out: Survival
HaCaT = assay: Cytotoxicity against human HaCaT cells assessed as survival rate at 100 microg/ml; format: functional; conditions: read-out: Survival
[10] = Acute toxicity in BALB/c mouse assessed as mortality at 10 mg/kg, iv measured for 24 hrs; format: organism-based; conditions: in vivo, read-out: Activity
[11] = Acute toxicity in BALB/c mouse assessed as mortality at 15 mg/kg, iv measured for 24 hrs; format: organism-based; conditions: in vivo, read-out: Activity
[12] = Acute toxicity in BALB/c mouse assessed as mortality at 50 mg/kg, iv measured for 24 hrs; format: organism-based; conditions: in vivo, read-out: Activity
[13] = Acute toxicity in BALB/c mouse assessed as mortality at 20 mg/kg, iv measured for 24 hrs; format: organism-based; conditions: in vivo, read-out: Activity
Escherichia coli = assay: Drug resistance, ratio of MIC for Escherichia coli ATCC 25922 after 40 passages to MIC for Escherichia coli ATCC 25922 during first exposure; format: functional
Peritoneal macrophage [14] = assay: Cytotoxicity against mouse Peritoneal macrophage cells assessed as decrease in cell number at 20 microg/ml; format: functional, cell-based; conditions: dose 20.0 µg/ml
4T1 = assay: Cytotoxicity against mouse 4T1 cells assessed as survival rate at 100 microg/ml; format: functional; conditions: read-out: Survival
B16-F10 = assay: Cytotoxicity against mouse B16-F10 cells assessed as survival rate at 100 microg/ml; format: functional; conditions: read-out: Survival

Molecule | Activity (Staphylococcus aureus [1]) | Activity (Peritoneal macrophage [4]) | hemolysis at 100 microg/ml [5] [%] | Activity (Peritoneal macrophage [6]) | viability at 100 µg/mL (Peritoneal macrophage [9]) [%] | viability at 100 µg/mL (HaCaT) [%] | Ratio (Escherichia coli) | Activity (Peritoneal macrophage [14]) | viability at 100 µg/mL (4T1) [%] | viability at 100 µg/mL (B16-F10) [%] | further results
CC[C@@H](C)[C@@H](NC(=O)[C@@H](CCCNC(=N)N)NC(=O)[C@@H](CO)NC(=O)[C@@H](Cc1c[nH]cn1)NC(=O)[C@@H](CCCNC(=N)N)NC(=O)[C@@H](CC(C)C)NC(=O)[C@H](NC(=O)[C@@H](CCCNC(=N)N)NC(=O)CNC(=O)[C@@H](CC(C)C)NC(=O)[C@@H](CCC(N)=O)NC(=O)[C@@H](CCCCN)NC(=O)[C@@H](CCCNC(=N)N)NC(=O)[C@H](NC(=O)[C@@H](CCCCN)NC(=O)[C@@H](CCCCN)NC(=O)[C@H](N)Cc1ccccc1)C(C)C)C(C)C)C(=O)N[C@@H](C(=O)N[C@@H](C(=O)NCC(=O)NCC(=O)N[C@H](CCCNC(=N)N)C(=O)N[C@H](CCSC)C(=O)N[C@H](CCCNC(=N)N)C(=O)N[C@H](Cc1ccccc1)C(=O)O)C(C)C)[C@H](C)O | inactive | Active | < 5 | Active | – | – | – | – | – | – | metabolised at 24 h (Trypsin): < 60%; Activity (Staphylococcus aureus [2]): 50%; Activity (Staphylococcus aureus [3]): 20%; inhibition (INH) (Acinetobacter baumannii): 10%
CC[C@H](C)[C@H](NC(=O)[C@H](CCCNC(=N)N)NC(=O)[C@H](CO)NC(=O)[C@H](Cc1c[nH]cn1)NC(=O)[C@H](CCCNC(=N)N)NC(=O)[C@@H]1CSSC[C@H](NC(=O)[C@H](CCCCN)NC(=O)[C@@H](N)Cc2ccccc2)C(=O)N[C@@H](CCCCN)C(=O)N[C@@H](C(C)C)C(=O)N[C@@H](CCCNC(=N)N)C(=O)N[C@@H](CCCCN)C(=O)N[C@@H](CCC(N)=O)C(=O)N[C@@H](CC(C)C)C(=O)NCC(=O)N[C@@H](CCCNC(=N)N)C(=O)N[C@@H](C(C)C)C(=O)N[C@@H](CC(C)C)C(=O)N1)C(=O)N[C@H](C(=O)N[C@H](C(=O)NCC(=O)NCC(=O)N[C@@H](CCCNC(=N)N)C(=O)N[C@@H](CCSC)C(=O)N[C@@H](CCCNC(=N)N)C(=O)N[C@@H](Cc1ccccc1)C(=O)O)C(C)C)[C@@H](C)O (H-FKCKVRKQLGRVLCRHSRITVGGRMRF-OH; disulfide 3-14) | inactive | Active | < 5 | Active | > 80 | > 80 | – | – | – | – | Activity (Staphylococcus aureus [7]): inactive; Activity [8]: Non-toxic
CC(C)CCCCC(=O)N[C@@H](CCN)C(=O)N[C@H](C(=O)N[C@@H](CCN)C(=O)N[C@H]1CCNC(=O)[C@H]([C@@H](C)O)NC(=O)[C@H](CCN)NC(=O)[C@H](CCN)NC(=O)[C@H](CC(C)C)NC(=O)[C@@H](Cc2ccccc2)NC(=O)[C@H](CCN)NC1=O)[C@@H](C)O.CC[C@H](C)CCCCC(=O)N[C@@H](CCN)C(=O)N[C@H](C(=O)N[C@@H](CCN)C(=O)N[C@H]1CCNC(=O)[C@H]([C@@H](C)O)NC(=O)[C@H](CCN)NC(=O)[C@H](CCN)NC(=O)[C@H](CC(C)C)NC(=O)[C@@H](Cc2ccccc2)NC(=O)[C@H](CCN)NC1=O)[C@@H](C)O (X3-[Dab]T[Dab][Dab][Dab][dF]L[Dab][Dab]T; lactam 4-C) | – | – | – | – | – | – | – | – | – | – | mortality at 24 h [10]: 50%; mortality at 24 h [11]: 100%; mortality at 24 h [12]: 100%; mortality at 24 h [13]: 100%
C[C@@H](O)[C@H]1C(=O)N2C(C(=O)O)=C(S[C@@H]3CN[C@H](C(=O)N(C)C)C3)[C@H](C)[C@H]12 [MEROPENEM] | – | – | – | – | – | – | 64 | – | – | – | –
H-RRSRFGRFFKKVRKQLGRVLRHSRI-NH2 | inactive | Active | – | Active | 80 | 80 | 1 | Active | < 40 | < 40 | –
H-RRSRFGRFFKKVRKQLGRVLRHSRITVGGRM-NH2 | inactive | Active | – | Active | 80 | 80 | – | Active | < 40 | < 40 | –

From ChEMBL document CHEMBL6078680, “Improving the Stability and Anti-Infective Activity of Sea Turtle AMPs Using Multiple Structural Modification Strategies” (J Med Chem, 2024)
